Experimental findings from ChEMBL document CHEMBL6092162, “Identification of novel and potent triazoles targeting CYP51 for antifungal: Design, synthesis, and biological study” (Eur J Med Chem, 2024) are described below.

By MIC80 is commonly meant the lowest concentration that inhibits either 80% of growth or 80% of the strains tested, depending on the study.

Common to all, as to assay type: functional
The subject of test [1] is Candida albicans. Kind of test: Antifungal activity against Candida albicans SC5314 assessed as inhibition of fungal growth by CLSI M27-A3 guidelines based method.
The subject of test [2] is Candida albicans. Kind of test: Antifungal activity against Candida albicans GIM 2.194 assessed as inhibition of fungal growth by CLSI M27-A3 guidelines based method.
In the next test the test system is Candida tropicalis. Kind of test: Antifungal activity against Candida tropicalis GIM 2.183 assessed as inhibition of fungal growth by CLSI M27-A3 guidelines based method.
For another test, the system named is Candida parapsilosis. The test is described as follows: Antifungal activity against Candida parapsilosis GIM 2.190 assessed as inhibition of fungal growth by CLSI M27-A3 guidelines based method. The following applies: Lodderomyces parapsilosis.
For a further test, the system named is Nakaseomyces glabratus. Kind of test: Antifungal activity against Candida glabrata assessed as inhibition of fungal growth by CLSI M27-A3 guidelines based method.
A further test relates to Pichia kudriavzevii. Kind of test: Antifungal activity against Candida krusei GIM 2.1 assessed as inhibition of fungal growth by CLSI M27-A3 guidelines based method.
The subject of a further test is Cryptococcus neoformans. Kind of test: Antifungal activity against Cryptococcus neoformans CGMCC 2.3161 assessed as inhibition of fungal growth by CLSI M27-A3 guidelines based method.
In test [3] the test system is Candida albicans. The test is described as follows: Antifungal activity against fluconazole and iodiconazole resistant Candida albicans clinical isolate 17# assessed as inhibition of fungal growth by CLSI M27-A3 guidelines based method.
The subject of test [4] is Candida albicans. The test is described as follows: Antifungal activity against fluconazole-resistant Candida albicans CaR assessed as inhibition of fungal growth by CLSI M27-A3 guidelines based method.
Test [5] concerns Candida albicans. Kind of test: Antifungal activity against fluconazole-resistant Candida albicans clinical isolate 901 assessed as inhibition of fungal growth by CLSI M27-A3 guidelines based method.
Test [6] concerns Candida albicans. Kind of test: Antifungal activity against fluconazole-resistant Candida albicans clinical isolate 904 assessed as inhibition of fungal growth by CLSI M27-A3 guidelines based method.
In test [7] the test system is Candida albicans. Kind of test: Antifungal activity against fluconazole-resistant Candida albicans clinical isolate 632 assessed as inhibition of fungal growth by CLSI M27-A3 guidelines based method.
Test [8] deals with Candida albicans. Kind of test: Antifungal activity against fluconazole-resistant Candida albicans clinical isolate 100 assessed as inhibition of fungal growth by CLSI M27-A3 guidelines based method.
In test [9] the test system is Candida albicans. The test is described as follows: Antifungal activity against fluconazole-resistant Candida albicans clinical isolate 103 assessed as inhibition of fungal growth by CLSI M27-A3 guidelines based method.
Test [10] has as its system Candida albicans. The test is described as follows: Antifungal activity against fluconazole-resistant Candida albicans clinical isolate 311 assessed as inhibition of fungal growth by CLSI M27-A3 guidelines based method.

≈ marks a conversion by molar mass, not a printed value.

On to `CN(Cc1ccc(N2CCN(Cc3cccc(Br)c3)CC2)cc1)CC(O)(Cn1cncn1)c1ccc(F)cc1F` (configuration not stated), for which the MIC80 is 0.013 µg/mL (≈ 0.0213 µM) in the test on Candida albicans [1]; 0.013 µg/mL (≈ 0.0213 µM) with Candida albicans [2]; 0.013 µg/mL (≈ 0.0213 µM) in the test with Candida tropicalis; 0.006 µg/mL (≈ 0.00981 µM) in the test on Candida parapsilosis; 0.2 µg/mL (≈ 0.327 µM) with Nakaseomyces glabratus; 0.1 µg/mL (≈ 0.164 µM) with Pichia kudriavzevii. Further, the MIC80 with Cryptococcus neoformans was 0.1 µg/mL (≈ 0.164 µM); in the test on Candida albicans [3], 0.063 µg/mL (≈ 0.103 µM); in the test with Candida albicans [4] it was 0.063 µg/mL (≈ 0.103 µM); in the test with Candida albicans [5] it was above 64 µg/mL; in the test on Candida albicans [6] it was 16 µg/mL (≈ 26.2 µM); with Candida albicans [7], 8 µg/mL (≈ 13.1 µM). Also, the MIC80 in the test on Candida albicans [8] came to 8 µg/mL (≈ 13.1 µM); with Candida albicans [9], 32 µg/mL (≈ 52.3 µM); in the test on Candida albicans [10] it was 32 µg/mL (≈ 52.3 µM).

Consider `CN(Cc1ccc(N2CCN(Cc3ccc(C(F)(F)F)cc3)CC2)cc1)CC(O)(Cn1cncn1)c1ccc(F)cc1F` (configuration not stated), for which the MIC80 amounted to 0.013 µg/mL (≈ 0.0216 µM) in the test on Candida albicans [1]; 0.013 µg/mL (≈ 0.0216 µM) with Candida albicans [2]; 0.013 µg/mL (≈ 0.0216 µM) with Candida tropicalis; 0.013 µg/mL (≈ 0.0216 µM) in the test with Candida parapsilosis; 0.1 µg/mL (≈ 0.166 µM) with Nakaseomyces glabratus; 0.1 µg/mL (≈ 0.166 µM) in the test with Cryptococcus neoformans. The MIC80 is 0.125 µg/mL (≈ 0.208 µM) in the test with Candida albicans [3]; 0.063 µg/mL (≈ 0.105 µM) in the test with Candida albicans [4]; above 64 µg/mL in the test on Candida albicans [5]; 32 µg/mL (≈ 53.3 µM) in the test on Candida albicans [6]; 16 µg/mL (≈ 26.6 µM) with Candida albicans [7]; 8 µg/mL (≈ 13.3 µM) with Candida albicans [8]. The MIC80 with Candida albicans [9] and in the test with Candida albicans [10] was 32 µg/mL (≈ 53.3 µM) in each case.

Regarding `CN(Cc1ccc(N2CCN(Cc3ccc(Cl)cc3Br)CC2)cc1)CC(O)(Cn1cncn1)c1ccc(F)cc1F` (configuration not stated), the MIC80 with Candida albicans [1] stood at 0.006 µg/mL (≈ 0.00929 µM); with Candida albicans [2], 0.006 µg/mL (≈ 0.00929 µM); with Candida tropicalis it was 0.006 µg/mL (≈ 0.00929 µM); in the test on Candida parapsilosis it was 0.006 µg/mL (≈ 0.00929 µM); in the test with Candida albicans [3], 1 µg/mL (≈ 1.55 µM); in the test on Candida albicans [4], 0.125 µg/mL (≈ 0.194 µM). For the same compound, the MIC80 is above 64 µg/mL with Candida albicans [5]; 32 µg/mL (≈ 49.5 µM) with Candida albicans [6]; 32 µg/mL (≈ 49.5 µM) in the test on Candida albicans [7]; 8 µg/mL (≈ 12.4 µM) with Candida albicans [8]; above 64 µg/mL in the test on Candida albicans [9]; above 64 µg/mL in the test with Candida albicans [10].

On to `CN(Cc1ccc(N2CCN(Cc3ccccc3Br)CC2)cc1)CC(O)(Cn1cncn1)c1ccc(F)cc1F` (configuration not stated), for which the MIC80 in the test on Candida albicans [1] was determined as 0.013 µg/mL (≈ 0.0213 µM); in the test with Candida albicans [2], 0.006 µg/mL (≈ 0.00981 µM); in the test on Candida tropicalis, 0.013 µg/mL (≈ 0.0213 µM); in the test on Candida parapsilosis it was 0.006 µg/mL (≈ 0.00981 µM); in the test with Nakaseomyces glabratus, 0.1 µg/mL (≈ 0.164 µM); with Pichia kudriavzevii, 0.1 µg/mL (≈ 0.164 µM). Moreover, the MIC80 with Candida albicans [3] was 0.063 µg/mL (≈ 0.103 µM); in the test on Candida albicans [4] it was 0.063 µg/mL (≈ 0.103 µM); in the test on Candida albicans [5], above 64 µg/mL; in the test with Candida albicans [6], 16 µg/mL (≈ 26.2 µM); in the test with Candida albicans [7] it was 8 µg/mL (≈ 13.1 µM); in the test with Candida albicans [8] it was 4 µg/mL (≈ 6.54 µM). In addition, the MIC80 in the test on Candida albicans [9] was 16 µg/mL (≈ 26.2 µM); in the test with Candida albicans [10], 32 µg/mL (≈ 52.3 µM).

In the case of `CN(Cc1ccc(N2CCN(Cc3ccc(Cl)cc3)CC2)cc1)CC(O)(Cn1cncn1)c1ccc(F)cc1F` (configuration not stated), the MIC80 is 0.05 µg/mL (≈ 0.0882 µM) in the test with Candida albicans [1]; 0.05 µg/mL (≈ 0.0882 µM) with Candida albicans [2]; 0.05 µg/mL (≈ 0.0882 µM) in the test on Candida tropicalis; 0.1 µg/mL (≈ 0.176 µM) in the test with Candida parapsilosis; 0.8 µg/mL (≈ 1.41 µM) in the test with Nakaseomyces glabratus; 0.1 µg/mL (≈ 0.176 µM) in the test on Pichia kudriavzevii. Moreover, in the test with Cryptococcus neoformans, the MIC80 turned out to be 0.8 µg/mL (≈ 1.41 µM).

Consider `CN(Cc1ccc(N2CCN(Cc3ccc([N+](=O)[O-])cc3)CC2)cc1)CC(O)(Cn1cncn1)c1ccc(F)cc1F` (configuration not stated), for which the MIC80 was found to be 0.025 µg/mL (≈ 0.0433 µM) in the test with Candida albicans [1]; 0.05 µg/mL (≈ 0.0866 µM) in the test with Candida albicans [2]; 0.025 µg/mL (≈ 0.0433 µM) in the test with Candida tropicalis; 0.025 µg/mL (≈ 0.0433 µM) in the test on Candida parapsilosis; 1.6 µg/mL (≈ 2.77 µM) in the test on Nakaseomyces glabratus; 0.4 µg/mL (≈ 0.692 µM) in the test on Pichia kudriavzevii. In the test with Cryptococcus neoformans, the MIC80 worked out at 0.1 µg/mL (≈ 0.173 µM).

Regarding `CN(Cc1ccc(N2CCN(Cc3ccc(C(C)(C)C)cc3)CC2)cc1)CC(O)(Cn1cncn1)c1ccc(F)cc1F` (configuration not stated), the MIC80 with Candida albicans [1] worked out at 0.013 µg/mL (≈ 0.0221 µM); with Candida albicans [2] it was 0.006 µg/mL (≈ 0.0102 µM); in the test with Candida tropicalis it was 0.013 µg/mL (≈ 0.0221 µM); with Candida parapsilosis, 0.006 µg/mL (≈ 0.0102 µM); in the test with Nakaseomyces glabratus, 0.1 µg/mL (≈ 0.17 µM); in the test on Cryptococcus neoformans, 0.1 µg/mL (≈ 0.17 µM). The MIC80 with Candida albicans [3] is 0.125 µg/mL (≈ 0.212 µM); in the test on Candida albicans [4], 0.063 µg/mL (≈ 0.107 µM); in the test on Candida albicans [5], above 64 µg/mL; with Candida albicans [6], 32 µg/mL (≈ 54.4 µM); in the test on Candida albicans [7], 16 µg/mL (≈ 27.2 µM); in the test on Candida albicans [8] it was 8 µg/mL (≈ 13.6 µM). Further, the MIC80 with Candida albicans [9] and with Candida albicans [10] was 8 µg/mL (≈ 13.6 µM) each time.

Turning to `CN(Cc1ccc(N2CCN(Cc3c(F)cccc3Br)CC2)cc1)CC(O)(Cn1cncn1)c1ccc(F)cc1F` (configuration not stated), the MIC80 was determined as 0.013 µg/mL (≈ 0.0207 µM) with Candida albicans [1]; 0.1 µg/mL (≈ 0.159 µM) with Candida albicans [2]; 0.013 µg/mL (≈ 0.0207 µM) with Candida tropicalis; 0.013 µg/mL (≈ 0.0207 µM) with Candida parapsilosis; 0.2 µg/mL (≈ 0.318 µM) with Nakaseomyces glabratus; 0.1 µg/mL (≈ 0.159 µM) in the test on Pichia kudriavzevii. Besides, the MIC80 in the test with Cryptococcus neoformans came to 0.1 µg/mL (≈ 0.159 µM).

Take `CN(Cc1ccc(N2CCN(Cc3ccccc3Cl)CC2)cc1)CC(O)(Cn1cncn1)c1ccc(F)cc1F` (configuration not stated): the MIC80 in the test on Candida albicans [1] turned out to be 0.025 µg/mL (≈ 0.0441 µM); in the test on Candida albicans [2], 0.006 µg/mL (≈ 0.0106 µM); in the test with Candida tropicalis, 0.013 µg/mL (≈ 0.0229 µM); in the test on Candida parapsilosis, 0.006 µg/mL (≈ 0.0106 µM); in the test with Nakaseomyces glabratus, 0.2 µg/mL (≈ 0.353 µM); with Pichia kudriavzevii, 0.1 µg/mL (≈ 0.176 µM). Moreover, the MIC80 in the test with Cryptococcus neoformans was 0.1 µg/mL (≈ 0.176 µM).
